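Results reflect a 48-hour exposure of cells in 96-well plates to compound at five concentrations. GI50: concentration for 50% inhibition of growth.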 Calls of active or inactive are those of the source. No stated cut-off is given here; in the data, active = GI50 up to about 1.1 µM and inactive = higher.
Columns and labels:
Experiment in all cases: NCI tumour cell line growth inhibition, 48 h
786-0 = system: 786-0
A498 = system: A498
A549 = system: A549
BT-549 = system: BT-549
DU-145 = system: DU-145
HCT-116 = system: HCT-116
HOP-92 = system: HOP-92
M14 = system: M14
MDA-MB-435 = system: MDA-MB-435
NCI-H226 = system: NCI-H226
NCI-H23 = system: NCI-H23
NCI-H460 = system: NCI-H460
OVCAR-3 = system: OVCAR-3
PC-3 = system: PC-3
RXF 393 = system: RXF 393
SF-539 = system: SF-539
SK-MEL-5 = system: SK-MEL-5
SNB-75 = system: SNB-75
U-251 = system: U-251
UACC-62 = system: UACC-62

SMILES | GI50 (786-0) | GI50 (A498) | GI50 (A549) | GI50 (BT-549) | GI50 (DU-145) | GI50 (HCT-116) | GI50 (HOP-92) | GI50 (M14) | GI50 (MDA-MB-435) | GI50 (NCI-H226) | GI50 (NCI-H23) | GI50 (NCI-H460) | GI50 (OVCAR-3) | GI50 (PC-3) | GI50 (RXF 393) | GI50 (SF-539) | GI50 (SK-MEL-5) | GI50 (SNB-75) | GI50 (U-251) | GI50 (UACC-62)
COc1cccc2c1CCc1cc3c(N)nc(N)nc3nc1-2 | 2.08 µM (inactive) | 9.27 µM (inactive) | 2.45 µM (inactive) | 26.4 µM (inactive) | 5.16 µM (inactive) | 2.55 µM (inactive) | 14 µM (inactive) | 4.22 µM (inactive) | 5.3 µM (inactive) | 12.6 µM (inactive) | 5.06 µM (inactive) | 4.83 µM (inactive) | 7.26 µM (inactive) | 5.38 µM (inactive) | 3.02 µM (inactive) | 1.79 µM (inactive) | 3.09 µM (inactive) | 5.98 µM (inactive) | 2.67 µM (inactive) | 7.23 µM (inactive)
Cn1cc(-c2cnc(-c3cn(C)c4ccccc34)cn2)c2ccccc21 | 4.6 µM (inactive) | 4.69 µM (inactive) | 6.21 µM (inactive) | 14.1 µM (inactive) | 5.27 µM (inactive) | 3.4 µM (inactive) | 12.9 µM (inactive) | 3.47 µM (inactive) | 0.811 µM (active) | 6.31 µM (inactive) | 4.25 µM (inactive) | 4.51 µM (inactive) | 3.04 µM (inactive) | 3.73 µM (inactive) | 3.25 µM (inactive) | 3.37 µM (inactive) | 0.288 µM (active) | 2.77 µM (inactive) | 4.06 µM (inactive) | 2.86 µM (inactive)
C=C1CN(C(=O)c2cc3cc(OC)c(OC)c(OC)c3[nH]2)c2cc([N+](=O)[O-])ccc21 | 30.5 µM (inactive) | 64.4 µM (inactive) | > 100 µM (inactive) | 61.2 µM (inactive) | > 100 µM (inactive) | > 100 µM (inactive) | 33.8 µM (inactive) | > 100 µM (inactive) | > 100 µM (inactive) | > 100 µM (inactive) | 65 µM (inactive) | > 100 µM (inactive) | > 100 µM (inactive) | > 100 µM (inactive) | 14.6 µM (inactive) | > 100 µM (inactive) | > 100 µM (inactive) | 51.1 µM (inactive) | 19.1 µM (inactive) | > 100 µM (inactive)
CC1(C)CC(=O)C2=C(C1)NC1=C(C(=O)CC(C)(C)C1)C2c1ccc([N+](=O)[O-])cc1 | > 100 µM (inactive) | > 100 µM (inactive) | > 100 µM (inactive) | > 100 µM (inactive) | > 100 µM (inactive) | > 100 µM (inactive) | > 100 µM (inactive) | > 100 µM (inactive) | > 100 µM (inactive) | > 100 µM (inactive) | > 100 µM (inactive) | > 100 µM (inactive) | > 100 µM (inactive) | > 100 µM (inactive) | > 100 µM (inactive) | > 100 µM (inactive) | > 100 µM (inactive) | 16.7 µM (inactive) | > 100 µM (inactive) | > 100 µM (inactive)
CC[C@]1(c2ccc3c(c2)OCO3)C=[N+]([O-])O[C@H](OC2CCCC2(c2ccccc2)c2ccccc2)[C@@H]1OC(C)=O (stereo not given in full) | 1.77 µM (inactive) | 1.27 µM (inactive) | 2.63 µM (inactive) | 2.53 µM (inactive) | 2.1 µM (inactive) | 1.78 µM (inactive) | 2.09 µM (inactive) | 2.28 µM (inactive) | 1.8 µM (inactive) | 4.3 µM (inactive) | 2.48 µM (inactive) | 2.24 µM (inactive) | 1.81 µM (inactive) | 3.24 µM (inactive) | 1.27 µM (inactive) | 4.22 µM (inactive) | 1.56 µM (inactive) | 2.16 µM (inactive) | 3.62 µM (inactive) | 1.95 µM (inactive)
CCCNC(C#N)c1ccc(OCCCCCCCCCCOc2ccc(C(C#N)NCCC)cc2)cc1 (stereo not given) | > 100 µM (inactive) | 23.1 µM (inactive) | 47 µM (inactive) | 75 µM (inactive) | 49 µM (inactive) | 31.9 µM (inactive) | 32.4 µM (inactive) | 40.4 µM (inactive) | 46.3 µM (inactive) | 30.8 µM (inactive) | 51.3 µM (inactive) | 50.5 µM (inactive) | 30.5 µM (inactive) | 30.8 µM (inactive) | 23.9 µM (inactive) | 55.2 µM (inactive) | 33.3 µM (inactive) | 32.8 µM (inactive) | 20.9 µM (inactive) | 61.2 µM (inactive)
CCOc1cc2c(cc1O)C(O)C[C@@H]1[C@@H]2CC[C@]2(C)[C@@H](O)CC[C@@H]12 (stereo not given in full) | 0.324 µM (active) | 0.0501 µM (active) | 0.231 µM (active) | 39.1 µM (inactive) | 0.59 µM (active) | 0.261 µM (active) | 12.5 µM (inactive) | 0.575 µM (active) | 0.033 µM (active) | 0.552 µM (active) | 0.766 µM (active) | 0.265 µM (active) | 0.347 µM (active) | 3.44 µM (inactive) | 1.44 µM (inactive) | 0.28 µM (active) | 0.236 µM (active) | 0.619 µM (active) | 0.394 µM (active) | 0.284 µM (active)
CC(C)(C)OC(=O)N(O)[C@@H]1C=C[C@H](n2cnc3c(N)ncnc32)C1 | > 100 µM (inactive) | > 100 µM (inactive) | > 100 µM (inactive) | > 100 µM (inactive) | > 100 µM (inactive) | > 100 µM (inactive) | > 100 µM (inactive) | > 100 µM (inactive) | > 100 µM (inactive) | 26.5 µM (inactive) | > 100 µM (inactive) | > 100 µM (inactive) | > 100 µM (inactive) | > 100 µM (inactive) | > 100 µM (inactive) | > 100 µM (inactive) | 70.5 µM (inactive) | 33.9 µM (inactive) | > 100 µM (inactive) | > 100 µM (inactive)
CC1(C)C(=O)/C=C\C(=O)C(C)(C)C2=CC=C(O2)C(C)(C)C(=O)C(Br)C(Br)C(=O)C(C)(C)C2=CC=C1O2 (stereo not given) | 39.6 µM (inactive) | > 100 µM (inactive) | > 100 µM (inactive) | 21.7 µM (inactive) | > 100 µM (inactive) | 17.9 µM (inactive) | > 21.5 µM (inactive) | 58.7 µM (inactive) | 34.4 µM (inactive) | > 100 µM (inactive) | 48.5 µM (inactive) | > 100 µM (inactive) | 29.9 µM (inactive) | > 100 µM (inactive) | 31.3 µM (inactive) | > 68.9 µM (inactive) | 45 µM (inactive) | 51.6 µM (inactive) | 41.4 µM (inactive) | 24 µM (inactive)
Oc1ncc(N(CCCl)CCCl)c(O)n1 [URACIL MUSTARD] | 10 µM (inactive) | 69.5 µM (inactive) | 23.3 µM (inactive) | 38.5 µM (inactive) | 22.3 µM (inactive) | 49 µM (inactive) | 23.8 µM (inactive) | 20.7 µM (inactive) | 64 µM (inactive) | 48.2 µM (inactive) | 15 µM (inactive) | 3.48 µM (inactive) | 74.6 µM (inactive) | 57.3 µM (inactive) | 20.7 µM (inactive) | 11.7 µM (inactive) | 41.8 µM (inactive) | 26.3 µM (inactive) | 15.2 µM (inactive) | 6.7 µM (inactive)
[C-]#[N+]C(=C\c1ccc(O)cc1)/C(=C/c1ccc(O)cc1)[N+]#[C-] [XANTOCILLIN] | 6.4 µM (inactive) | 3.06 µM (inactive) | 5.94 µM (inactive) | 2.41 µM (inactive) | 2.53 µM (inactive) | 0.6 µM (active) | 2.9 µM (inactive) | 2.28 µM (inactive) | 1.28 µM (inactive) | 2.37 µM (inactive) | 2.31 µM (inactive) | 2.42 µM (inactive) | 2.33 µM (inactive) | 3.65 µM (inactive) | 1.85 µM (inactive) | 2.97 µM (inactive) | 2.04 µM (inactive) | 1.12 µM (inactive) | 1.57 µM (inactive) | 1.84 µM (inactive)
